Results published in patent publication US5599789A, “Method for the treatment of tumours and sarcomas” (Amrad Corporation Limited, priority 1991, dated 1997).
“Also recorded” adds a separate entry of the source.

What was measured:
[1] = tested on: Ewing's Sarcoma cell line Al-5; assay: Colony formation in semi-solid agar cultures, Al-5 cells; type: cell-based, human; conditions: Al-5, 1,000 cells, day 18
Protocol: (§1) Tumour cells obtained from biopsy and bone marrow specimens from patients with Ewing's Sarcoma were used in these studies. Approval for this project has been obtained from the Ethics Committee of the Royal Children's Hospital.
(§2) Single cell suspensions of tumour cells were obtained by mechanical disruption with an 18G or 21G needle or by pipetting, followed by incubation with dispase II (Boehringer) at a concentration of 1.2 units per ml for 10 minutes at 37° C. Prior to the addition to agar-medium the cells were vortexed gently to prevent clumping.
(§3) Clonal cell lines were grown in Iscove's Modified Dulbecco's Medium (IMDM) supplemented with 10% v/v foetal calf serum (FCS; CSL Limited, Melbourne, Australia) and were passaged either weekly or twice weekly. The characteristics of the Ewing Sarcoma cell lines used herein as described below:
(§4) Cell lines derived from the above primary cell lines (Al and Cu) are identified by an Arabic numeral (e.g. Al-1, Al-5, Al-8 or Cu-1).
(§5) The tumour cells were immobilised in 0.3% w/v agar containing Iscove's Modified Dulbecco's Medium (IMDM) and 10% v/v FCS. […] Cultures were scored for the presence of colonies (>40 cells) or clusters (<40 cells). The number of cells plated per culture ranged from 500 to 10,000 per ml. Colonies were counted on an Olympus dissecting microscope.
(§6) IL-1, IL-3, IL-4, IL-6, M-CSF, G-CSF, GM-CSF, Stem Cell Factor (SCF), TNFα, TGFα, TGFβ, EGF, aFGF, bFGF, NGF, IGF I, IGF II, PDGF and IFN-γ.
(§7) The recombinant human leukaemia inhibitory factor (LIF) was obtained from AMRAD Corporation Limited, Melbourne, Australia.

[2] = tested on: Ewing's Sarcoma cell line Al-8; assay: Colony formation in semi-solid agar cultures, Al-8 cells; type: cell-based, human; conditions: Al-8, 1,000 cells, day 18
Protocol: as §1, §2, §3, §4, §5, §6, §7

[3] = tested on: Ewing's Sarcoma cell line Al-1; assay: Colony formation in semi-solid agar cultures, Al-1 cells; type: cell-based, human; conditions: day 18
Protocol: as §1, §2, §3, §4, §5, §6, §7

[4] = tested on: Ewing's Sarcoma cell line Cu-1; assay: Colony formation in semi-solid agar cultures, Cu-1 cells; type: cell-based, human; conditions: Cu-1, 10,000 cells, day 18
Protocol: as §1, §2, §3, §4, §5, §6, §7

[5] = tested on: LIF receptors on Ewing sarcoma cell line Al5; assay: 125I-hLIF binding, Scatchard analysis, cloned line Al5; set-up: species or system human; conditions: Al5 cells, 3 hrs on ice, Scatchard slope, read-out: Equilibrium dissociation constant
Protocol: (§8) A cloned Ewing sarcoma cell line Al5 (7×10^6 per point) in 100 μl of RPMI-medium containing 10 mM Hepes buffer pH 7.4 and 10% v/v foetal calf serum were incubated with increasing concentrations of ^125 I-hLIF (E. coli derived) (5000-800,000 cpm: 100,000 cpm/ng) with or without 5 μg/ml of unlabelled hLIF for 3 hrs on ice. The incubation mixture was then layered over 180 μl cold foetal calf serum, centrifuged at top speed in an Eppendoff microfuge for 10 sec and the tip of the tube containing the cell pellet cut with a scalpel blade and removed for counting in a gamma counter.

[6] = tested on: LIF receptors on different Ewing sarcoma cells; assay: 125I-hLIF binding, second independent Scatchard analysis; set-up: species or system human; conditions: read-out: Equilibrium dissociation constant
Protocol: as §8

[7] = tested on: Ewing's sarcoma cells (cell line A1-5) xenograft; assay: Ewing's tumour growth in SCID mice (subcutaneous xenograft); type: in vivo; conditions: for Histology of subcutaneous tumours / Mitotic figures in tumours: hLIF 20 μg/day, 18 days; for Histology of subcutaneous tumours: Haematoxylin and Eosin; for Mitotic figures in tumours: histology
From the text: Scid mice were obtained from the Animal Resource Centre, Willetton, Western Austarlia. All mice were aged 5-8 weeks, and were the same sex (male). Severe immunodeficiency (scid) is an autosomal recessive mutation that occurred spontaneously in the CB 17 (CB-IgH-1^b (N17F34)) congenic strain (16). In this congenic strain, the inbred BALB/c strain carried the immunoglobulin heavy-chain allele (Igh-I^b) of the C57BL/Ka strain. The SCID locus has been mapped to the centromeric end of chromosome 16 (16). These mice have defective T and B cell immunity, thus allowing for engraftment of many foreign cells. The mice were maintained in a laminar flow unit. In order to reduce the mortality from infection, the mice were kept in previously autoclaved cages, and autoclaved food and acidified water was used.
Recombinant human LIF (hLIF) derived from E. coli (Lot 122, AMRAD Corporation Limited) was used. Recombinant mouse LIF (Lot 308, AMRAD Corporation Limited) and PBS/1% w/v BSA were used as controls for the in vivo injections.
5-8×10^6 cloned Ewing's sarcoma cells (cell line A1-5), were injected subcutaneously into SCID mice. Tumours were scored after about 3 weeks in almost all mice at the injection site.
To examine the effect of heterologous and homologous LIF relative to the mammal being treated, a double blind controlled study was performed using tumour bearing SCID mice that were injected with hLIF (20 μg per mouse), mouse LIF (100 ng per mouse), or PBS/1% w/v BSA. The effective amount of hLIF was required to be higher than mLIF due to the presence of high circulating levels of a hLIF binding protein in mice (17). Eight mice were injected in each group with the majority of mice in the hLIF group surviving over 2 weeks (range 15-31 days). Tumour size was assessed using calibrated calibers, with measurements in the depth, length and width of the tumours. […] The trend for smaller tumours in hLIF treated mice was evident prior to the wasting syndrome. Although not wishing to limit the present invention to any one hypothesis as to mode of action, this phenomenon may be a manifestation of LIF toxicity in mice. In most cases, this trend was noticeable within 7 days after hLIF injections.
Histological examination of the subcutaneous tumours was performed on all mice, as was a full necropsy.

[8] = stimulus 100 ng, mean of duplicate colony counts
[9] = hLIF 20 μg per mouse daily s.c.

LIF: recombinant human leukaemia inhibitory factor (E. coli derived) from AMRAD Corporation Limited
Colonies/Cultures ([1]; stimulus 0.01 ng): 47
Colonies/Cultures ([1]; stimulus 0.1 ng): 27
Colonies/Cultures ([1]; stimulus 1 ng): 25
Colonies/Cultures ([1]; stimulus 10 ng): 18
Colonies/Cultures [1, 8]: 2
Colonies/Cultures ([2]; stimulus 0.01 ng): 68
Colonies/Cultures ([2]; stimulus 0.1 ng): 29
Colonies/Cultures ([2]; stimulus 1 ng): 23
Colonies/Cultures ([2]; stimulus 10 ng): 6
Colonies/Cultures [2, 8]: 3
Colonies/Cultures ([3]; Al-1, 1,000 cells, stimulus 0.01 ng): 50
Colonies/Cultures ([3]; Al-1, 1,000 cells, stimulus 0.1 ng): 39
Colonies/Cultures ([3]; Al-1, 1,000 cells, stimulus 1 ng): 23
Colonies/Cultures ([3]; Al-1, 1,000 cells, stimulus 10 ng): 24
Colonies/Cultures ([3]; Al-1, 1,000 cells, stimulus 100 ng, mean of duplicate colony counts): 32
Colonies/Cultures ([3]; Al-1, 10,000 cells, stimulus 0.01 ng): 695
Colonies/Cultures ([3]; Al-1, 10,000 cells, stimulus 0.1 ng): 305
Colonies/Cultures ([3]; Al-1, 10,000 cells, stimulus 1 ng): 129
Colonies/Cultures ([3]; Al-1, 10,000 cells, stimulus 10 ng): 17
Colonies/Cultures ([3]; Al-1, 10,000 cells, stimulus 100 ng, mean of duplicate colony counts): 18
Colonies/Cultures ([4]; stimulus 0.01 ng): 542
Colonies/Cultures ([4]; stimulus 0.1 ng): 430
Colonies/Cultures ([4]; stimulus 1 ng): 192
Colonies/Cultures ([4]; stimulus 10 ng): 97
Colonies/Cultures [4, 8]: 125
Kd [5]: 0.09 nM
Kd [6]: 0.13 nM
Time until trend for smaller tumours was noticeable ([7]; after hLIF injections, 20 μg per mouse, in most cases): ≤ 7 days
Survival of the majority of mice [7, 9]: over 2 weeks
Tumour size compared to PBS controls [7, 9]: significantly reduced in size; also recorded: significantly smaller
Survival range of tumour bearing mice ([7]; hLIF 20 μg per mouse daily s.c., eight mice): 15 to 31 days
Histology of subcutaneous tumours [7]: mainly composed of necrotic areas with only a small percentage of the tumour being made up of viable cells
Histology of subcutaneous tumours ([7]; listed as human LIF): regressive, nectrotic tumour cells; also recorded: necrotic, regressive tumour cells
Mitotic figures in tumours [7]: almost no mitotic figures
Mitotic figures in tumours ([7]; listed as human LIF): lack of mitotic figures
Viable areas of tumours ([7]; hLIF treated, microscopic examination): < 20%
